Measurements: patent publication US8173711B2, “Agent for relief or prevention of xerostomia” (Kaneka Corporation, priority 2007, dated 2012)
Marks after values point to notes of the source that are not given here.

Key:
[1] = test system: xerostomia (dry mouth) outpatients; experiment: Saxon test, amount of secreted saliva, coenzyme Q10 capsule intake in patients with xerostomia; format: in vivo, human; details: for Amount of secreted saliva, Increased amount: difference after minus before one-month intake; for Amount of secreted saliva, After intake / Amount of secreted saliva, Before intake: group average; for Amount of secreted saliva, After intake: after one 100 mg capsule every day for one month; for Amount of secreted saliva, Before intake: before intake of one 100 mg capsule every day for one month
Description: A test subject chews a piece of gauze for 2 minutes. The weight of the gauze piece has been measured in advance. After the 2-minute chewing, the weight of the gauze is measured. An amount of secreted saliva is calculated as a difference between the weights of the gauze piece before and after the 2-minute chewing.
In total 23 xerostomia (dry mouth) outpatients (23 females including 21 Sjogren syndrome patients) were divided into three groups. To one group consisting of 9 patients, one oxidized coenzyme Q10-containing capsule having the composition illustrated in Table 1 (Test food 1, 240 mg per capsule) was administered every day for one month. To another group consisting of another 9 patients, one reduced coenzyme Q10-containing capsule having the composition shown in Table 1 (Test food 2, 240 mg per capsule) was administered every day for one month. The amount of secreted saliva was measured for each group before and after the intake. To the other group consisting of remaining 5 patients, one placebo capsule (Control food, 240 mg per capsule) was administered every day for one month. The amount of secreted saliva was similarly measured before and after the intake.
(§1) The amount of secreted saliva was measured by Saxon test. Namely, a test subject chewed a piece of gauze for 2 minutes. The weight of the gauze piece had been measured in advance. After the 2-minute chewing, the weight of the gauze piece was measured. The amount of secreted saliva was calculated as a difference between the weights of the gauze piece before and after the 2-minute chewing. In the present example, those whose amount of secreted saliva measured by Saxon test was 2.0 g/2 min. or less were determined as xerostomia patients, and those whose amount of secreted saliva was more than that were determined as healthy persons. Tables 2 and 3 illustrate the average values of all subjects of each group.

[2] = test system: healthy persons; experiment: Saxon test, amount of secreted saliva, coenzyme Q10 capsule intake in healthy persons; format: in vivo, human; details: for Amount of secreted saliva, Increased amount: difference after minus before one-month intake; for Amount of secreted saliva, After intake / Amount of secreted saliva, Before intake: group average; for Amount of secreted saliva, After intake: after one 100 mg capsule every day for one month; for Amount of secreted saliva, Before intake: before intake of one 100 mg capsule every day for one month; for Significant or excessive increase of secreted saliva before versus after intake: one capsule every day for one month
Description: as §1
In total, 57 healthy persons (12 males, 45 females) were collected as volunteers. One oxidized coenzyme Q10-containing capsule having the composition illustrated in Table 1 (Test food 1, 240 mg per capsule) was administered every day for one month to a group consisting of 22 healthy persons (5 males, 17 females), and one reduced coenzyme Q10-containing capsule having the composition illustrated in Table 1 (Test food 2, 240 mg per capsule) was administered every day for one month to another group consisting of 22 healthy persons (5 males, 17 females). The amount of secreted saliva was measured for each group before and after the intake by the same procedure as that in Example 1. To remaining 13 healthy persons (2 males, 11 females), one placebo capsule (Control food, 240 mg per capsule) was administered every day for one month. The amount of secreted saliva was measured before and after the intake.

[3] = test system: rats; details: 52 consecutive weeks, 1.2 g/kg/day; cited from earlier work
[4] = test system: Parkinson's disease model mice; details: Non-Patent Document 2; cited from earlier work

Compound | Amount of secreted saliva, Increased amount [1] | Amount of secreted saliva, Increased amount ([1]; listed as reduced coenzyme Q10) | Amount of secreted saliva, After intake [1] | Amount of secreted saliva, After intake ([1]; listed as reduced coenzyme Q10) | Amount of secreted saliva, Before intake [1] | Comparison of salivary secretion-increasing effect ([1]; reduced versus oxidized coenzyme Q10 capsule) | Amount of secreted saliva, Increased amount [2] | Amount of secreted saliva, After intake [2] | Amount of secreted saliva, Before intake [2] | Significant or excessive increase of secreted saliva before versus after intake [2] | Toxicity [3] | Effect on conditions of Parkinson's disease model mice [4] | Amount of secreted saliva, After intake ([1]; listed as oxidized coenzyme Q10)
COc1c(O)c(C)c(C/C=C(\C)CC/C=C(\C)CC/C=C(\C)CC/C=C(\C)CC/C=C(\C)CC/C=C(\C)CC/C=C(\C)CC/C=C(\C)CC/C=C(\C)CCC=C(C)C)c(O)c1OC [Reduced coenzyme Q10] | 0.70 g/2 min. | 0.7 g/2 min. | 1.52* g/2 min. | 1.52 g/2 min. | 0.82 g/2 min. | higher effects than oxidized coenzyme Q10 | 0.10 g/2 min. | 3.54 g/2 min. | 3.44 g/2 min. | None of the oxidized coenzyme Q10 capsule administration group, the reduced coenzyme Q10 capsule administration group and the placebo capsule administration group showed a significant or excessive increase |  |  | 
ubiquinone [Oxidized coenzyme Q] |  |  |  |  |  |  |  |  |  |  | no evidence of toxicity | effects to improve conditions | 
COC1=C(OC)C(=O)C(C/C=C(\C)CC/C=C(\C)CC/C=C(\C)CC/C=C(\C)CC/C=C(\C)CC/C=C(\C)CC/C=C(\C)CC/C=C(\C)CC/C=C(\C)CCC=C(C)C)=C(C)C1=O [Oxidized coenzyme Q10] | 0.59 g/2 min. |  | 1.28* g/2 min. |  | 0.69 g/2 min. |  | 0.43 g/2 min. | 6.16 g/2 min. | 5.73 g/2 min. | None of the oxidized coenzyme Q10 capsule administration group, the reduced coenzyme Q10 capsule administration group and the placebo capsule administration group showed a significant or excessive increase |  |  | 1.28 g/2 min.
